Measured values from patent US20130053385A1, “METHOD OF COMBATING AND CONTROLLING PESTS” (SYNGENTA LIMITED, priority 2009, published 2013).

Experiments:
Type in all cases: in vivo
[1] = system: Plutella xylostella (Diamond Back Moth); test: Activity against Plutella xylostella, larvicide, feeding/residual contact activity, preventive (artificial diet MTP, Example B5); conditions: 120 h, 400 ppm, artificial diet, L2 larvae, 5 days incubation, read-out: activity (larval mortality, antifeedant, growth regulation)
Protocol: Activity Against Plutella xylostella (Diamond Back Moth)
(§1) (larvicide, feeding/residual contact activity, preventive)
24-well microtiter plate (MTP) with artificial diet is treated with test solutions by pipetting. After drying, the MTP's are infested with larvae (L2)(10-15 per well). After an incubation period of 5 days, samples are checked for larval mortality, antifeedant and growth regulation.

[2] = system: Tetranychus urticae (Two-Spotted Spider Mite); test: Activity against Tetranychus urticae, mixed population, feeding/residual contact activity, preventive (bean leaf discs, Example B4); conditions: foliar, 192 h, 400 ppm, sprayed bean leaf discs, 8 days, mixed-age mites, read-out: activity (egg, larval and adult mortality)
Source text: Activity Against Tetranychus urticae (Two-Spotted Spider Mite)
(§2) (mixed population, feeding/residual contact activity, preventive)
Bean leaf discs on agar in 24-well microtiter plates are sprayed with test solutions. After drying, the leaf discs are infested with mite populations of mixed ages. 8 days later, discs are checked for egg mortality, larval mortality, and adult mortality.

[3] = system: Thrips tabaci (Onion Thrips); test: Activity against Thrips tabaci, mixed population, feeding/residual contact activity, preventive (sunflower leaf discs, Example B3); conditions: foliar, 144 h, sprayed sunflower leaf discs, 6 days incubation, mixed-age thrips
Protocol: Activity Against Thrips tabaci (Onion Thrips)
as §2
Sunflower leaf discs are placed on agar in a 24-well microtiter plate and sprayed with test solutions. After drying, the leaf discs are infested with a thrips population of mixed ages. After an incubation period of 6 days, samples are checked for mortality and special effects (e.g. phytotoxicity).

[4] = system: Myzus persicae (Green Peach Aphid); test: Activity against Myzus persicae, mixed population, feeding/residual contact activity, preventive (sunflower leaf discs, Example B1); conditions: foliar, 144 h, 400 ppm, sprayed sunflower leaf discs, 6 days incubation, mixed-age aphids, read-out: activity (mortality)
Protocol: (§3) Activity Against Myzus persicae (Green Peach Aphid)
as §2
Sunflower leaf discs are placed on agar in a 24-well microtiter plate and sprayed with test solutions. After drying, the leaf discs are infested with an aphid population of mixed ages. After an incubation period of 6 days, samples are checked for mortality and special effects (e.g. phytotoxicity).

[5] = system: Diabrotica balteata (Corn Root Worm); test: Activity against Diabrotica balteata, larvicide, feeding/residual contact activity, preventive (artificial diet MTP, Example B6); conditions: 120 h, L2 larvae, 5 days incubation, read-out: activity (larval mortality, antifeedant, growth regulation)
Protocol: Activity Against Diabrotica balteata (Corn Root Worm)
as §1
24-well microtiter plate (MTP) with artificial diet is treated with test solutions by pipetting. After drying, the MTP's are infested with larvae (L2)(6-10 per well). After an incubation period of 5 days, samples are checked for larval mortality, antifeedant and growth regulation.

[6] = system: Myzus persicae (Green Peach Aphid); test: Activity against Myzus persicae, mixed population, feeding activity (sucrose solution through Parafilm, Example B7); conditions: 120 h, in sucrose solution, 5 days after infestation
Source text: as §3
(mixed population, feeding activity)
Test compounds are applied with a pipette into 24 well plates and mixed with a sucrose solution. The plates are closed with a stretched Parafilm. A plastic stencil with 24 holes is placed onto the plate and infested pea seedlings are placed directly on the Parafilm. The infested plate is closed with a gel blotting paper and another plastic stencil, and then turned upside down. 5 days after infestation the samples are checked for mortality.

Cc1cc(C)c(C2=C(OC(=O)C(C)(C)C)CC(CC3CCOC3)C2=O)c(C)c1 (stereo not shown) [Compound P7]
> 80%: mortality at 400 ppm [1] | mortality at 400 ppm [2] | mortality at 400 ppm [3] | mortality at 400 ppm [4]

CCCOC(=O)OC1=C(c2c(C)cc(C)cc2C)C(=O)C(CC2CCOC2)C1 (stereo not shown) [Compound P20]
> 80%: mortality at 400 ppm [1] | mortality at 400 ppm [3]

Cc1cc(C)c(C2=C(OC(=O)C(C)(C)C)CC(CC3CCCOC3)C2=O)c(C)c1 (stereo not shown) [Compound P37]
> 80%: mortality at 400 ppm [1] | mortality at 400 ppm [2]

Cc1cc(C)c(C2=C(OC(=O)c3ccccc3)CC(CC3CCOCC3)C2=O)c(C)c1 (stereo not shown) [Compound P44]
> 80%: mortality at 400 ppm [1] | mortality at 400 ppm [2] | mortality at 400 ppm [3] | mortality at 400 ppm [4] | mortality at 400 ppm [5]

COc1ccc(C(=O)OC2=C(c3c(C)cc(C)cc3C)C(=O)CC2CC2CCOC2)cc1 (stereo not shown) [Compound P71]
> 80%: mortality at 400 ppm [2] | mortality at 400 ppm [4] | mortality at 400 ppm [5]

Cc1cc(C)c(C2C(=O)CC(CC3CCOCC3)C2=O)c(C)c1 (stereo not shown) [Compound T4]
> 80%: mortality at 400 ppm [1] | mortality at 400 ppm [3]

Cc1cc(C)c(C2C(=O)CC(CC3CCOC3)C2=O)c(C)c1 (stereo not shown) [Compound T5]
> 80%: mortality at 400 ppm [1] | mortality at 400 ppm [3] | mortality at 400 ppm [4]

Cc1cc(C)c(C2C(=O)C/C(=C\C3CCOCC3)C2=O)c(C)c1 (stereo not shown) [Compound T8]
> 80%: mortality at 400 ppm [1] | mortality at 400 ppm [2] | mortality at 400 ppm [3] | mortality at 400 ppm [4]

Cc1cc(C)c(C2C(=O)C/C(=C\C3CCCOC3)C2=O)c(C)c1 (stereo not shown) [Compound T14]
> 80%: mortality at 400 ppm [1] | mortality at 400 ppm [2] | mortality at 400 ppm [3] | mortality at 400 ppm [4] | mortality at 25 ppm [6]

Cc1cc(C)c(C2C(=O)CC(CC3CCCOC3)C2=O)c(C)c1 (stereo not shown) [Compound T16]
> 80%: mortality at 400 ppm [1] | mortality at 400 ppm [3] | mortality at 400 ppm [4]

Cc1cc(C)c(C2C(=O)C/C(=C\C3CCOC3)C2=O)c(C)c1 (stereo not shown) [Compound T17]
> 80%: mortality at 400 ppm [1] | mortality at 400 ppm [2] | mortality at 400 ppm [3] | mortality at 400 ppm [4] | mortality at 400 ppm [5]

Cc1cc(C)c(C2C(=O)C/C(=C\C3CCN(S(C)(=O)=O)C3)C2=O)c(C)c1 (stereo not shown) [Compound T31]
> 80%: mortality at 400 ppm [1] | mortality at 400 ppm [2]

Cc1cc(C)c(C2C(=O)CC(CC3CCOC(C)(C)C3)C2=O)c(C)c1 (stereo not shown) [Compound T39]
> 80%: mortality at 400 ppm [2] | mortality at 400 ppm [5]

Cc1cc(C)c(C2C(=O)C/C(=C\C3CCN(C(=O)OC(C)(C)C)CC3)C2=O)c(C)c1 (stereo not shown) [Compound T54]
> 80%: mortality at 400 ppm [2] | mortality at 400 ppm [5]

Cc1cc(-c2ccc(F)cc2)cc(C)c1C1C(=O)C/C(=C\C2CCOCC2)C1=O (stereo not shown) [Compound T61]
> 80%: mortality at 400 ppm [2] | mortality at 400 ppm [4] | mortality at 25 ppm [6]

Cc1cc(-c2ccc(Cl)cc2)cc(C)c1C1C(=O)C/C(=C\C2CCOCC2)C1=O (stereo not shown) [Compound T62]
> 80%: mortality at 400 ppm [1] | mortality at 400 ppm [2] | mortality at 400 ppm [4] | mortality at 25 ppm [6]

Cc1cc(-c2ccc(F)cc2)cc(C)c1C1C(=O)CC(CC2CCOCC2)C1=O (stereo not shown) [Compound T63]
> 80%: mortality at 400 ppm [2] | mortality at 400 ppm [4] | mortality at 25 ppm [6]

Cc1cc(Br)cc(C)c1C1C(=O)CC(CC2CCOC2)C1=O (stereo not shown) [Compound T160]
> 80%: mortality at 400 ppm [5]
